Starred links: 1 amine or outer side, 2 acyl side, 3 side chain; linkers in the order of their positions; H or OH if unused. Positions of bridges follow the written chain, without caps; N, C: chain ends. Non-standard residues stand in square brackets, D forms with d. Residues, ends and D or L forms follow the SMILES beside them. Trimesoyl = O=C(c1cc(C(=O)[*:2])cc(C(=O)[*:3])c1)[*:1]; Phe(4-Cl) = N[C@@H](Cc1ccc(Cl)cc1)C(=O)O; Phe(4-F) = N[C@@H](Cc1ccc(F)cc1)C(=O)O; d2Nal = N[C@H](Cc1ccc2ccccc2c1)C(=O)O; Orn = NCCC[C@H](N)C(=O)O; Dap = NC[C@H](N)C(=O)O
Key:
Etf-1 [1] = target: T1, Etf-1 (Ehrlichia chaffeensis, UniProt Q2GG12); assay: FP assay of Etf-1 binding with FAM-labeled peptides
Description: The peptides were labeled at their C-terminus with carboxyfluorescein (FAM) through a β-Ala-β-Ala-Lys linker and evaluated for binding to Etf-1 by using a fluorescence polarization (FP) assay. […] This outcome is not unexpected, as screening OBOC libraries is often complicated by false positives, due to the presence of high ligand densities on library beads ([28]).
(§1) Fig. 2. Determination of binding affinity of Etf-1-binding peptides by FP assay. […] FAM-labeled peptide (50 nM) was incubated with serially diluted Etf-1 (starting from 25–30 μM in PBS, pH 7.4, supplemented with 5 mM DTT and 0.01% Triton X-100) for 1 h at RT. FP values were measured on a Tecan Infinite M1000 Pro plate reader. Titration curves (n ≥ 3) were fitted using GraphPad Prism and analyzed with TraceDrawer to calculate dissociation constants (KD). […] Data were analyzed using GraphPad Prism and fitted to a four-parameter variable slope equation to determine IC50 values.
Etf-1 and macrocyclic peptides were serially diluted in PBS supplemented with 5 mM DTT and 0.01% Triton X-100 (v/v). FAM-labeled peptides (50 nM) were prepared from a 10-μM DMSO stock and incubated with serially diluted Etf-1 for 1 h at room temperature (RT). Twenty microliters of the solutions were transferred to a black 384-well plate (Greiner Bio-One) and FP values were measured on a Tecan Infinite M1000 Pro plate reader with excitation and emission wavelengths at 470 and 535 nm, respectively. Titration curves (n ≥ 3) were fitted using GraphPad Prism v8.0 (GraphPad, La Jolla, CA, USA), and analyzed with TraceDrawer software v1.8 (Ridgeview Instruments AB, Uppsala, Sweden) to calculate the dissociation constant (KD, in nM).

E. chaffeensis [2] = assay: E. chaffeensis infection of THP-1 cells, qPCR of 16S rRNA gene normalized to human actin; assay type: cell-based, Ehrlichia chaffeensis; settings: 10 μM, 2 days, vs DMSO control
Description: Therefore, we investigated whether these Etf-1-binding peptides can prevent the proliferation of E. chaffeensis inside host cells. THP-1 cells were infected with E. chaffeensis, then treated with the peptides at 30 min post infection (pi) for 2 days. Intracellular infection and proliferation of E. chaffeensis inside host THP-1 cells were assessed using quantitative PCR (qPCR) analysis based on E. chaffeensis 16S rRNA gene normalized by human actin (ACT) gene.
Fig. 5. Effects of Etf-1-binding peptides on E. chaffeensis infection of THP-1 cells. Ehrlichia chaffeensis-infected THP-1 cells at […] were incubated with 10 μM of Etf-1-binding macrocyclic peptide or DMSO control for 2 days.
No antibiotic was used throughout the study.
DNA was extracted from each sample using Qiagen blood mini kit according to the manufacturer's instructions (Qiagen, Valencia, CA, USA), and qPCR analysis was performed in an MX3000P qPCR instrument (Stratagene, San Diego, CA, USA) using SYBR Green Real-Time PCR Master Mix (Thermo Fisher Scientific) according to the manufacturer's instructions. Five-fold serial dilutions of the control group were used to generate a standard curve to calculate the relative copy numbers of E. chaffeensis 16S rRNA normalized against human actin genes using the MX3000P software from Stratagene as described previously ([18], [44]).

E. chaffeensis [3] = assay: morphological examination of E. chaffeensis infection of THP-1 cells by Diff-Quik staining; settings: THP-1 cells, Fig. S4 (with Figs. 5, S3)
Description: Ehrlichia chaffeensis Arkansas strain ([43]) was cultured in THP-1 cells (ATCC, Manassas, VA, USA) in RPMI 1640 medium (Corning, Manassas, VA, USA) supplemented with 8% FBS (Atlanta Biologicals, Flowery Branch, GA, USA) and 4 mM L-glutamine (at 37°C under 5% CO2 in a humidified atmosphere. THP-1 cells were seeded at 1 × 10^5 cells/well (in 1.5-mL RPMI 1640 culture medium with 8% FBS, 4 mM L-Gln) in a 12-well plate, then infected with host cell-free E. chaffeensis at an MOI (multiplicity of infection, or numbers of bacteria per cell) of ∼30. Cells were cultured in a humidified incubator with 5% CO2 and 95% air. No antibiotic was used throughout the study. At 0.5 h post infection (pi), cells were incubated with 1–10 μM of peptides or with an equal volume of DMSO (solvent control, 2 μL per mL medium). At 2 days pi, cells were washed with 1 mL of PBS, and two drops of cells were cytospun onto glass slides by a Shandon Cytospin 4 cytocentrifuge (Thermo Fisher Scientific), then fixed and stained with HEMA 3 staining solutions (Thermo Fisher Scientific). Ehrlichia infection was observed and images were captured by a SPOT RT digital camera (Diagnostic Instruments, Sterling Heights, MI, USA) coupled to a Nikon Eclipse E400 microscope (Nikon, Melville, NY, USA).

BECN1 binding to Etf-1 = assay: streptavidin magnetic beads pull-down of BECN1 with biotin-Etf-1, Western blot; assay type: biochemical; settings: 10 µM peptide; for BECN1/Etf-1 Ratio: band intensities, DMSO control set as 1, Fig. 8B
Description: Fig. 8.
Streptavidin magnetic beads (15 µL, Pierce, Rockford, IL, USA) were washed with 1 mL of Bind/Wash buffer (25 mM Tris, pH 7.4; 250 mM NaCl, 0.1% Tween 20), and incubated with 0.15 µg ([…] final concentration) of biotinylated full-length Etf-1 protein in bind/wash buffer at 4°C overnight with end-to-end rotation. Beads were washed three times with Bind/Wash buffer, then incubated with Etf-1-binding macrocyclic peptides (10 µM) or DMSO control in Bind/Wash buffer at room temperature for 2 h. […] Beads were washed three times, and proteins were eluted from the beads with 50 µL of 2× SDS-sample buffer. […] Reacting bands were visualized with enhanced chemiluminescence by incubating the membrane with LumiGLO chemiluminescent reagent (Thermo Fisher Scientific). Images were captured by Amersham Imager 680 (GE Healthcare) and densitometry analysis was performed using ImagQuaNT (GE Healthcare). In each specimen, band intensities were normalized against those of actin as the loading control, and the ratios of the treatment group to the control group were calculated with the value in the control groups arbitrarily set as 1.0.

Etf-1 [4] = target: T1, Etf-1; assay: biochemical; assay type: binding; settings: unlabeled competitor peptides vs FAM-B7-133-8
Description: as §1
Serial dilutions of competitor peptide (0-20 μM) were prepared from DMSO stock solutions into PBS containing 0.01% Triton-X100 and 2 mM TCEP and added to aliquots of the equilibrated Etf-1/probe solution. After incubation for 1 h in the dark and with gentle mixing, 20 μL of each sample was transferred into 384-well black-on-black microplates and FP was measured using a TECAN Infinite M1000 plate reader. Data were analyzed using GraphPad PRISM ver. 8.0 and fit to a four-parameter variable slope equation to determine IC50 values. IC50 values reported are the mean ± SD of n = 2–4 independent experiments.

THP-1 cells = assay: CellTiter-Glo luminescent cell viability assay; settings: 2-day treatment
Description: THP-1 (human promyelocytic leukemia) cells are widely used as E. chaffeensis infection studies of human monocytes in vitro, since initial characterization of infection ([31]).
Fig. 4. Cytotoxicity and proteolytic stability of Etf-1-binding peptides. (A) Effect of Etf-1-binding peptides on the viability of THP-1 cells as determined by CellTiter-Glo luminescent assay. Relative luminescence was plotted as function of the peptide concentration, with the cell viability of DMSO control group set as 100%. (B) Plot of the amount of intact peptide remaining as a function of the incubation time in 25% human serum. All values are normalized to that of peptide at time 0 (100%).
Cytotoxicity of Etf-1-binding peptides was examined by CellTiter-Glo luminescent cell viability assay (Promega, Madison, WI, USA). THP-1 cells were seeded in a transparent 96-well plate at a density of 5 × 10^3 cells/well (100 μL in each well) in RPMI-1640 containing 10% FBS and 1% antibiotics and cultured overnight. Etf-1-binding peptides were serially diluted in DPBS from a DMSO stock and added to the cells with the final concentration of 0–25 μM and a constant final concentration of 0.5% DMSO (v/v). After incubation at 37°C with 5% CO2 for 46 h, the plate was removed and pre-equilibrated to RT before the addition of 100 μL of the CellTiter-Glo 2.0 reagent to each well. The plate was incubated for 15 min on a rotary shaker in the dark, and the luminescence was detected (1-s integration time) on a Tecan Infinite M1000 Pro microplate reader. Relative luminescence was plotted as function of the peptide concentration, with the cell viability of DMSO control group set as 100%.

T1 sequence (Q2GG12 entry or part of it): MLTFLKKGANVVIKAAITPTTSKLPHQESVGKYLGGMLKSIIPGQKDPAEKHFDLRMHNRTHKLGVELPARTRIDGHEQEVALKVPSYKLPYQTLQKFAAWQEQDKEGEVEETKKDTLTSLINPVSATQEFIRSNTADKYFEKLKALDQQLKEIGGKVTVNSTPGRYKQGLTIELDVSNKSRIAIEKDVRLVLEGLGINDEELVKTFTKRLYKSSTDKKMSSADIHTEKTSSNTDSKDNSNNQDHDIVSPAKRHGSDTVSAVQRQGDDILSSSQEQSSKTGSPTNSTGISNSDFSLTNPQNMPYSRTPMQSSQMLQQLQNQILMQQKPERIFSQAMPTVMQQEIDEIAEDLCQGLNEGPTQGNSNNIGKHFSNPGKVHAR

| Compound | Kd (Etf-1 [1]) [nM] | inhibition of E. chaffeensis infection (E. chaffeensis [2]) | E. chaffeensis infection (numbers and sizes of morulae) (E. chaffeensis [3]) | disruption of BECN1 binding to Etf-1 (BECN1 binding to Etf-1; compared to DMSO control) | BECN1/Etf-1 Ratio (BECN1 binding to Etf-1) | competition for Etf-1 binding (Etf-1 [4]) | cell viability (THP-1 cells; 20 μM) | cytotoxicity (THP-1 cells; up to 10 μM) |
| --- | --- | --- | --- | --- | --- | --- | --- | --- |
| CC(C)[C@H]1NC(=O)[C@@H](CCC(=O)O)NC(=O)c2cc3cc(c2)C(=O)NC[C@H](NC(=O)CNC(=O)[C@H](Cc2c[nH]c4ccccc24)NC(=O)[C@H](Cc2ccc(O)cc2)NC1=O)C(=O)N[C@@H](Cc1ccccc1)C(=O)N[C@H](Cc1ccc2ccccc2c1)C(=O)N[C@H](CCCNC(=N)N)C(=O)N[C@@H](CCCNC(=N)N)C(=O)N[C@H](CCCNC(=N)N)C(=O)N[C@@H](CCCNC(=N)N)C(=O)N[C@H](C(N)=O)CNC3=O [Peptide C8, TMA-glu-val-Tyr-Trp-Gly-Dap-Phe-nal-arg-Arg-arg-Arg-Dap] ([dE][dV]YWG[Dap]F[d2Nal][dR]R[dR]R[Dap]-NH2; linker N-6-13 via Trimesoyl) | 5000 ± 1200 | significantly inhibited | significantly inhibited | disrupted BECN1 binding to Etf-1 | 0.14 | – | – | – |
| TMA-Tyr-Phg-Orn-ala-Ieu-Orn-leu-Dap-4-ClPhe-nal-arg-Arg-arg-Arg-Dap [Peptide B7-131-3] | – | – | – | – | – | Competition for Etf-1 binding was observed | – | – |
| CC(C)C[C@H]1NC(=O)[C@H](Cc2ccc(F)cc2)NC(=O)[C@H](CCCN)NC(=O)[C@H](CC(=O)O)NC(=O)[C@H](CC(=O)O)NC(=O)[C@@H](C(C)C)NC(=O)[C@H](Cc2ccc(O)cc2)NC(=O)c2cc3cc(c2)C(=O)NC[C@H](NC1=O)C(=O)N[C@@H](Cc1ccc(Cl)cc1)C(=O)N[C@H](Cc1ccc2ccccc2c1)C(=O)N[C@H](CCCNC(=N)N)C(=O)N[C@@H](CCCNC(=N)N)C(=O)N[C@H](CCCNC(=N)N)C(=O)N[C@@H](CCCNC(=N)N)C(=O)N[C@H](C(N)=O)CNC3=O [Peptide B7-95-2, TMA-Tyr-val-Asp-Asp-Orn-Fpa-leu-Dap-4-ClPhe-nal-arg-Arg-arg-Arg-Dap] (Y[dV]DD[Orn][Phe(4-F)][dL][Dap][Phe(4-Cl)][d2Nal][dR]R[dR]R[Dap]-NH2; linker N-8-15 via Trimesoyl) | 740 ± 60 | significantly inhibited | significantly inhibited | – | – | Competition for Etf-1 binding was observed | – | – |
| CC(C)C[C@H]1NC(=O)[C@H](Cc2ccc(F)cc2)NC(=O)[C@@H](Cc2ccc(O)cc2)NC(=O)[C@@H](CC(C)C)NC(=O)[C@@H](C(C)C)NC(=O)[C@H](Cc2ccc(O)cc2)NC(=O)c2cc3cc(c2)C(=O)NC[C@H](NC1=O)C(=O)N[C@@H](Cc1ccc(Cl)cc1)C(=O)N[C@H](Cc1ccc2ccccc2c1)C(=O)N[C@H](CCCNC(=N)N)C(=O)N[C@@H](CCCNC(=N)N)C(=O)N[C@H](CCCNC(=N)N)C(=O)N[C@@H](CCCNC(=N)N)C(=O)N[C@H](C(N)=O)CNC3=O [Peptide B7-133-9, TMA-Tyr-val-leu-tyr-Fpa-leu-Dap-4-ClPhe-nal-arg-Arg-arg-Arg-Dap] (Y[dV][dL][dY][Phe(4-F)][dL][Dap][Phe(4-Cl)][d2Nal][dR]R[dR]R[Dap]-NH2; linker N-7-14 via Trimesoyl) | – | – | only slightly reduced | – | 1.19 | Competition for Etf-1 binding was observed | – | – |
| CC(C)C[C@H]1NC(=O)[C@H](CO)NC(=O)[C@H]2CCCN2C(=O)[C@H](CCC(N)=O)NC(=O)[C@H](Cc2c[nH]cn2)NC(=O)[C@H](Cc2ccc(O)cc2)NC(=O)c2cc3cc(c2)C(=O)NC[C@H](NC1=O)C(=O)N[C@@H](Cc1ccc(Cl)cc1)C(=O)N[C@H](Cc1ccc2ccccc2c1)C(=O)N[C@H](CCCNC(=N)N)C(=O)N[C@@H](CCCNC(=N)N)C(=O)N[C@H](CCCNC(=N)N)C(=O)N[C@@H](CCCNC(=N)N)C(=O)N[C@H](C(N)=O)CNC3=O [Peptide B7-16, TMA-Tyr-His-Gln-pro-Ser-leu-Dap-4-ClPhe-nal-arg-Arg-arg-Arg-Dap] (YHQ[dP]S[dL][Dap][Phe(4-Cl)][d2Nal][dR]R[dR]R[Dap]-NH2; linker N-7-14 via Trimesoyl) | 2000 ± 200 | significantly inhibited | significantly inhibited | – | – | – | slightly reduced the cell viability | no cytotoxicity |

— article PMC9982066, “Inhibition of Ehrlichia chaffeensis infection by cell-permeable macrocyclic peptides that bind type IV secretion effector Etf-1” (PNAS Nexus, 2023)
